# Results as given in the supplement of paper PMC3974653.
# Counter-ions that a name gives are not always drawn.
# Tested on: MTT (mouse pheochromocytoma)
# Assay: IC50 of cell viability (ATP content)
# Details: (24 or 48 h)
# Procedure, shortened: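 After overnight culture at 37°C, 5% CO2 in white 1536-well plates, MTT mouse pheochromocytoma cells were given 23 nl of library compound in DMSO by pintool across 8 concentrations, spanning final 0.5 nM to 46 µM. Following 24 or 48 hrs, CellTiter-Glo luminescence was read after 15 minutes and normalised against positive-control (100%) and DMSO (0%) wells. A four-parameter logistic model provided the IC50.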
row,SMILES,IC50 of cell viability
1,OC(=O)C/1=C/C(=O)C2=C(O1)C=CC=C2 [CHROMOCARB],> 46 µM
2,COC(C)(C)CCCC(C)C/C=C/C(C)=C/C(=O)OC(C)C (stereo not given) [Methoprene],> 46 µM
3,O.O.O.O.O.O.O.O=S(=O)([O-])[O-].[Co+2] [Cobalt sulfate heptahydrate],> 46 µM
4,CNC(=O)[C@H](Cc1c[nH]c2ccccc12)NC(=O)[C@@H](CC(=O)NO)CC(C)C [ILOMASTATUM],> 46 µM
5,C[C@@H]1C[C@H]2[C@@H]3C[C@H](F)C/4=C/C(=O)/C=C\[C@]4(C)[C@@]3(F)[C@@H](O)C[C@]2(C)[C@@]1(O)C(=O)COC(=O)C(C)(C)C [Flumethasone pivalate],> 46 µM
6,Cc1c(Cl)c(=O)oc2cc(OP(=O)(OCCCl)OCCCl)ccc12 [Haloxon],> 46 µM
7,CC(=O)Nc1nnc([S+](N)(=O)[O-])s1 [Acetazolamide],> 46 µM
8,CO[C@H]1C[C@@H](O[C@@H]2[C@@H](C)O[C@@H](O[C@@H]3/C(C)=C/CC4C[C@@H](C[C@]5(C=C[C@@H](C)[C@H](C6CCCCC6)O5)O4)OC(=O)[C@@H]4C=C(C)[C@@H](O)[C@H]5OC/C(=C\C=C\[C@@H]3C)[C@]54O)C[C@H]2OC)O[C@@H](C)[C@@H]1O [Doramectin],> 46 µM
9,C[C@H](N)[C@@H](O)c1ccccc1 [Phenylpropanolamine hydrochloride],> 46 µM
10,O.O.[Na+].[Na+].[O]=[Cr](=[O])([O-])[O][Cr](=[O])(=[O])[O-] [Sodium Dichromate Dihydrate],> 46 µM
11,CC(=O)[C@@H]1CC[C@@H]2[C@@H]3\C=C/C4=C/C(=O)CC[C@@]4(C)[C@H]3CC[C@@]12C [Dydrogesterone],> 46 µM
12,OC(Cn1cncn1)(Cn1cncn1)c1ccc(F)cc1F [FLUCONAZOLE],> 46 µM

# More lines, now with the values ahead:
row,IC50 of cell viability,SMILES
1,> 46 µM,CNCC(=O)NC(CCCNC(=N)N)C(=O)NC(C(=O)NC(Cc1ccc(O)cc1)C(=O)NC(C(=O)NC(Cc1cnc[nH]1)C(=O)N1CCCC1C(=O)NC(C)C(=O)O)C(C)C)C(C)C (stereo not given) [SARALASIN ACETATE]
2,> 46 µM,c1ccc2c(c1)OCC(CN1CCCCC1)O2 (stereo not given) [PIPEROXANUM]
3,> 46 µM,OCCN1CCN(CC/C=C2\c3ccccc3Sc3ccc(Cl)cc32)CC1 [Zuclopenthixol hydrochloride]
4,> 46 µM,CN[C@H](CC(C)C)C(=O)N[C@H]1C(=O)N[C@@H](CC(N)=O)C(=O)N[C@H]2C(=O)N[C@H]3C(=O)N[C@H](C(=O)N[C@H](C(=O)O)c4cc(O)cc(O)c4-c4cc3ccc4O)[C@H](O)c3ccc(c(Cl)c3)Oc3cc2cc(c3O[C@@H]2OC(CO)[C@@H](O)[C@H](O)[C@H]2O[C@H]2C[C@](C)(N)[C@H](O)[C@H](C)O2)Oc2ccc(cc2Cl)[C@H]1O (stereo not given in full) [VANCOMYCIN HYDROCHLORIDE]
5,> 46 µM,Cc1ncc(COP(=O)(O)O)c(CN)c1O [PYRIDOXAMINE PHOSPHATE]
6,> 46 µM,CC(C)NCC(O)c1ccc(O)c(O)c1 (stereo not given) [ISOPROTERENOL]
7,> 46 µM,COC(F)(F)C(Cl)Cl [METHOXYFLURANE]
8,> 46 µM,NC(=O)c1ncn(C2OC(CO)C(O)C2O)n1 (stereo not given) [RIBAVIRIN]
9,> 46 µM,C=C1NC(=O)c2cc(CN(C)c3ccc(C(=O)N[C@@H](CCC(=O)O)C(=O)O)s3)ccc2N1 [RALTITREXED]
10,> 46 µM,CC(C)=CCC/C(C)=C/CC/C(C)=C/CC/C=C(\C)CC/C=C(\C)CCC=C(C)C [SQUALENE]
11,> 46 µM,N#Cc1ccc(C(c2ccc(C#N)cc2)n2cncn2)cc1 [Letrozole]
12,> 46 µM,Cc1c(O)cccc1C(=O)N[C@@H](CSc1ccccc1)[C@H](O)CN1C[C@H]2CCCC[C@H]2C[C@H]1C(=O)NC(C)(C)C [Nelfinavir Mesylate]
13,> 46 µM,FC1(F)C(F)(F)C(F)(F)C2(F)C(F)(F)C(F)(F)C(F)(F)C(F)(F)C2(F)C1(F)F (stereo not given) [PERFLUNAFENUM]
